Test results published in US10738028B2, “Spiro three-membered ring, spiro five-membered ring peptide deformylase inhibitor and use thereof in antibacteria and anti-tumor” (priority 2016, dated 2020).

Assays:
Type in all cases: cell-based
[1] = system: Enterococcus faecalis (EFA); test: MIC, two-fold agar dilution (CLSI), clinical isolates
In short: (§1)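 Test samples were assayed by the CLSI-recommended two-fold agar dilution method, and the minimum inhibitory concentration against each tested strain was determined.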

[2] = system: Enterococcus faecium (EFM); test: as above
In short: as §1

[3] = system: Escherichia coli (including ESBLs, non-ESBLs); test: as above; conditions: for Anti-bacterial activity (MIC), strain ECO+ 15-1: clinical isolate ECO+ 15-1; for Anti-bacterial activity (MIC), strain ECO+ 15-2: clinical isolate ECO+ 15-2; for Anti-bacterial activity (MIC), strain ECO+ 15-3: clinical isolate ECO+ 15-3; for Anti-bacterial activity (MIC), strain ECO+ 15-4: clinical isolate ECO+ 15-4; for Anti-bacterial activity (MIC), strain ECO− 15-1: clinical isolate ECO− 15-1; for Anti-bacterial activity (MIC), strain ECO− 15-2: clinical isolate ECO− 15-2; for Anti-bacterial activity (MIC), strain ECO− 15-3: clinical isolate ECO− 15-3; for Anti-bacterial activity (MIC), strain ECO− 15-4: clinical isolate ECO− 15-4
In short: as §1

[4] = system: Moraxella catarrhalis (BCA); test: as above
In short: as §1

[5] = system: Streptococcus pneoumoniae (SPN); test: as above
In short: as §1

[6] = system: methicillin-resistant Staphylococcus aureus (MRSA); test: as above; conditions: for Anti-bacterial activity (MIC), strain MRSA 15-1: clinical isolate MRSA 15-1; for Anti-bacterial activity (MIC), strain MRSA 15-2: clinical isolate MRSA 15-2; for Anti-bacterial activity (MIC), strain MRSA 15-3: clinical isolate MRSA 15-3; for Anti-bacterial activity (MIC), strain MRSA 15-4: clinical isolate MRSA 15-4
In short: as §1

[7] = system: methicillin-resistant Staphylococcus epidermidis (MRSE); test: as above; conditions: for Anti-bacterial activity (MIC), strain MRSE 15-1: clinical isolate MRSE 15-1; for Anti-bacterial activity (MIC), strain MRSE 15-2: clinical isolate MRSE 15-2; for Anti-bacterial activity (MIC), strain MRSE 15-3: clinical isolate MRSE 15-3; for Anti-bacterial activity (MIC), strain MRSE 15-7: clinical isolate MRSE 15-7
In short: as §1

[8] = system: methicillin-sensitive Staphylococcus aureus (MSSA); test: as above; conditions: for Anti-bacterial activity (MIC), strain MSSA 15-3: clinical isolate MSSA 15-3; for Anti-bacterial activity (MIC), strain MSSA 15-4: clinical isolate MSSA 15-4; for Anti-bacterial activity (MIC), strain MSSA 15-5: clinical isolate MSSA 15-5; for Anti-bacterial activity (MIC), strain MSSA 15-6: clinical isolate MSSA 15-6
In short: as §1

[9] = system: methicillin-sensitive Staphylococcus epidermidis (MSSE); test: as above; conditions: for Anti-bacterial activity (MIC), strain MSSE 15-4: clinical isolate MSSE 15-4; for Anti-bacterial activity (MIC), strain MSSE 15-5: clinical isolate MSSE 15-5; for Anti-bacterial activity (MIC), strain MSSE 15-6: clinical isolate MSSE 15-6
In short: as §1

[10] = system: HCT-116 colorectal cancer cell line; test: CCK-8 proliferation inhibition; conditions: concentration of 30 μM; 72 hours; CCK-8; 30 µM
In short: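 Cells were plated overnight at 2000 cells/well, then compound in culture medium was added at a range of final concentrations. After 72 hours in a CO2 incubator, medium was replaced with 1:10 CCK-8 solution for the read-out.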

[11] = system: A549 lung cancer cell line; test: CCK-8 proliferation inhibition; conditions: concentration of 30 μM; for inhibition at 30 µM: Homo sapiens, A549, 72 h; for Inhibition of proliferation, Lung cancer A549: 72 hours, 30 µM
In short: (§2)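 Plating at 2000 cells/well, then incubation overnight at 37° C. Next, a range of compound concentrations for 72 hours (control 1‰ DMSO). Finally, medium decanted and CCK-8 diluted 1:10 added.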

[12] = system: BEL-7402 liver cancer cell line; test: CCK-8 proliferation inhibition; conditions: concentration of 30 μM, 72 hours, 30 µM
In short: as §2

[13] = system: MGC-803 gastric cancer cell line; test: CCK-8 proliferation inhibition; conditions: concentration of 30 μM; for Inhibition of proliferation, Gastric cancer MGC-803: 72 hours, 30 µM
In short: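 Proliferation was measured with 1:10 diluted CCK-8 after a 72-hour incubation with the inhibitors at various final concentrations, using 1‰ DMSO as the control. Cells were plated at 2000 per well. Culture media contained 10% newborn bovine serum: 1640 for Jurkat and MGC-803, F12 for PC3, DMEM high glucose for MCF-7.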

Cc1cnc(NC(=O)[C@@H]2CC3(CC3)CN2C(=O)[C@@H](CC(=O)NO)CC2CCCC2)s1 [Example 65]
67%: Inhibition of proliferation, Lung cancer A549 [11]
8 µg/mL: Anti-bacterial activity (MIC), strain ECO+ 15-1 [3] | Anti-bacterial activity (MIC), strain ECO+ 15-2 [3] | Anti-bacterial activity (MIC), strain ECO− 15-1 [3] | Anti-bacterial activity (MIC), strain ECO− 15-4 [3]
0.125 µg/mL: Anti-bacterial activity (MIC), strain EFM 15-5 ([2]; clinical isolate EFM 15-5) | Anti-bacterial activity (MIC), strain BCA 14-5 ([4]; clinical isolate BCA 14-5) | Anti-bacterial activity (MIC), strain BCA 14-6 ([4]; clinical isolate BCA 14-6) | Anti-bacterial activity (MIC), strain BCA 14-10 ([4]; clinical isolate BCA 14-10) | Anti-bacterial activity (MIC), strain SPN 16-2 ([5]; clinical isolate SPN 16-2) | Anti-bacterial activity (MIC), strain MRSA 15-2 [6] | Anti-bacterial activity (MIC), strain MRSA 15-4 [6] | Anti-bacterial activity (MIC), strain MRSE 15-2 [7] | Anti-bacterial activity (MIC), strain MRSE 15-3 [7] | Anti-bacterial activity (MIC), strain MRSE 15-7 [7] | Anti-bacterial activity (MIC), strain MSSA 15-3 [8] | Anti-bacterial activity (MIC), strain MSSE 15-4 [9]
4 µg/mL: Anti-bacterial activity (MIC), strain EFA 15-9 ([1]; clinical isolate EFA 15-9)
0.015 µg/mL: Anti-bacterial activity (MIC), strain MRSE 15-1 [7] | Anti-bacterial activity (MIC), strain MSSA 15-4 [8] | Anti-bacterial activity (MIC), strain MSSA 15-5 [8] | Anti-bacterial activity (MIC), strain MSSE 15-6 [9]
> 32 µg/mL: Anti-bacterial activity (MIC), strain EFA 15-6 ([1]; clinical isolate EFA 15-6) | Anti-bacterial activity (MIC), strain EFM 15-1 ([2]; clinical isolate EFM 15-1) | Anti-bacterial activity (MIC), strain EFM 15-2 ([2]; clinical isolate EFM 15-2) | Anti-bacterial activity (MIC), strain EFM 15-3 ([2]; clinical isolate EFM 15-3)
32 µg/mL: Anti-bacterial activity (MIC), strain EFA 15-1 ([1]; clinical isolate EFA 15-1) | Anti-bacterial activity (MIC), strain EFA 15-2 ([1]; clinical isolate EFA 15-2) | Anti-bacterial activity (MIC), strain EFA 15-3 ([1]; clinical isolate EFA 15-3) | Anti-bacterial activity (MIC), strain EFA 15-4 ([1]; clinical isolate EFA 15-4) | Anti-bacterial activity (MIC), strain EFA 15-5 ([1]; clinical isolate EFA 15-5)
81%: Inhibition of proliferation, Liver cancer BEL-7402 [12]
0.25 µg/mL: Anti-bacterial activity (MIC), strain EFM 15-4 ([2]; clinical isolate EFM 15-4)
16 µg/mL: Anti-bacterial activity (MIC), strain ECO+ 15-3 [3] | Anti-bacterial activity (MIC), strain ECO+ 15-4 [3] | Anti-bacterial activity (MIC), strain ECO− 15-2 [3] | Anti-bacterial activity (MIC), strain ECO− 15-3 [3] | Anti-bacterial activity (MIC), strain MSSA 15-6 [8]
0.5 µg/mL: Anti-bacterial activity (MIC), strain BCA 14-1 ([4]; clinical isolate BCA 14-1) | Anti-bacterial activity (MIC), strain BCA 14-4 ([4]; clinical isolate BCA 14-4) | Anti-bacterial activity (MIC), strain BCA 14-7 ([4]; clinical isolate BCA 14-7) | Anti-bacterial activity (MIC), strain BCA 14-8 ([4]; clinical isolate BCA 14-8)
72%: Inhibition of proliferation, Gastric cancer MGC-803 [13]
1 µg/mL: Anti-bacterial activity (MIC), strain EFM 15-6 ([2]; clinical isolate EFM 15-6)
0.06 µg/mL: Anti-bacterial activity (MIC), strain SPN 16-4 ([5]; clinical isolate SPN 16-4) | Anti-bacterial activity (MIC), strain MRSA 15-1 [6] | Anti-bacterial activity (MIC), strain MRSA 15-3 [6] | Anti-bacterial activity (MIC), strain MSSE 15-5 [9]
83%: HCT116 inhibition rate/% [10]
> 50%: inhibition at 30 µM [11]

O=C(C[C@@H](CC1CCCC1)C(=O)N1CC2(CC2)C[C@H]1C(=O)Nc1cccnn1)NO [Example 66]
2 µg/mL: Anti-bacterial activity (MIC) ([1]; strain EFA 15-3) | Anti-bacterial activity (MIC) ([4]; strain BCA 14-1) | Anti-bacterial activity (MIC) ([4]; strain BCA 14-4) | Anti-bacterial activity (MIC) ([4]; strain BCA 14-5) | Anti-bacterial activity (MIC) ([4]; strain BCA 14-6) | Anti-bacterial activity (MIC) ([4]; strain BCA 14-7) | Anti-bacterial activity (MIC) ([4]; strain BCA 14-8) | Anti-bacterial activity (MIC), strain MRSA 15-2 [6]
0.06 µg/mL: Anti-bacterial activity (MIC), strain MSSE 15-3 ([9]; clinical isolate MSSE 15-3) | Anti-bacterial activity (MIC), strain MSSE 15-6 [9]
16 µg/mL: Anti-bacterial activity (MIC) ([1]; strain EFA 15-4) | Anti-bacterial activity (MIC) ([1]; strain EFA 15-5) | Anti-bacterial activity (MIC) ([1]; strain EFA 15-6) | Anti-bacterial activity (MIC) ([1]; strain EFA 15-9) | Anti-bacterial activity (MIC) ([2]; strain EFM 15-1) | Anti-bacterial activity (MIC) ([2]; strain EFM 15-2) | Anti-bacterial activity (MIC) ([2]; strain EFM 15-3) | Anti-bacterial activity (MIC), strain ECO+ 15-1 [3] | Anti-bacterial activity (MIC), strain ECO+ 15-3 [3] | Anti-bacterial activity (MIC), strain ECO+ 15-4 [3] | Anti-bacterial activity (MIC), strain ECO− 15-1 [3] | Anti-bacterial activity (MIC), strain ECO− 15-2 [3]
32 µg/mL: Anti-bacterial activity (MIC), strain ECO+ 15-2 [3] | Anti-bacterial activity (MIC), strain ECO− 15-3 [3] | Anti-bacterial activity (MIC), strain MSSA 15-6 [8]
56%: Inhibition of proliferation, Lung cancer A549 [11]
0.5 µg/mL: Anti-bacterial activity (MIC) ([2]; strain EFM 15-6) | Anti-bacterial activity (MIC) ([4]; strain BCA 14-10) | Anti-bacterial activity (MIC), strain MRSA 15-1 [6] | Anti-bacterial activity (MIC), strain MRSA 15-3 [6] | Anti-bacterial activity (MIC), strain MSSA 15-4 [8] | Anti-bacterial activity (MIC), strain MSSA 15-5 [8]
74%: Inhibition of proliferation, Liver cancer BEL-7402 [12]
0.25 µg/mL: Anti-bacterial activity (MIC) ([5]; strain SPN 16-2) | Anti-bacterial activity (MIC) ([5]; strain SPN 16-4) | Anti-bacterial activity (MIC), strain MRSE 15-1 [7]
60%: Inhibition of proliferation, Gastric cancer MGC-803 [13]
1 µg/mL: Anti-bacterial activity (MIC) ([2]; strain EFM 15-4) | Anti-bacterial activity (MIC), strain MRSA 15-4 [6] | Anti-bacterial activity (MIC), strain MRSE 15-2 [7] | Anti-bacterial activity (MIC), strain MRSE 15-3 [7] | Anti-bacterial activity (MIC), strain MRSE 15-7 [7] | Anti-bacterial activity (MIC), strain MSSA 15-3 [8] | Anti-bacterial activity (MIC), strain MSSE 15-4 [9] | Anti-bacterial activity (MIC), strain MSSE 15-5 [9]
0.125 µg/mL: Anti-bacterial activity (MIC) ([2]; strain EFM 15-5)
8 µg/mL: Anti-bacterial activity (MIC), strain ECO− 15-4 [3]
4 µg/mL: Anti-bacterial activity (MIC) ([1]; strain EFA 15-1) | Anti-bacterial activity (MIC) ([1]; strain EFA 15-2)
75%: HCT116 inhibition rate/% [10]
> 50%: inhibition at 30 µM [11] | inhibition at 30 µM ([13]; Homo sapiens, MGC-803, 72 h)
